According to patent US6491953B1, “Controlled release compositions and method” (Amcol International Corporation, priority 1999, dated 2002):

test: Stability (discoloration) of ascorbic acid compositions added to water; assay type: physicochemical; details: in water at 45° C.
Protocol: The stability of the three compositions was tested by adding individual portions of the three compositions to water at 25° C. and at 45° C. A control solution of 1-ascorbic acid in water discolored after four hours at 45° C. and after five days at room temperature. […] A polymer-ascorbic acid solution, without the addition of a release retardant, also discolored during the test. Accordingly, a release retardant protects and stabilizes an active agent adsorbed onto an adsorbent polymer.

With O=C1O[C@H]([C@@H](O)CO)C(O)=C1O [1-ascorbic acid] the “time after which solution discolored” value was “four”.

same assay, conditions: in water at room temperature

With O=C1O[C@H]([C@@H](O)CO)C(O)=C1O [1-ascorbic acid] the “time after which solution discolored” value was “five”.

test: Adsorption / entrapment of solid and liquid materials on POLYPORE E 200 microparticles (Example 1); assay type: physicochemical; details: adsorbed on microparticles of Example 1 (POLYPORE E 200)
Excerpt: The adsorbent polymer microparticles made by the suspension polymerization technique include at least two polyunsaturated monomers, preferably allyl methacrylate and an ethylene glycol dimethacrylate, and, optionally, monounsaturated monomers. The microparticles are characterized by being open to their interior, due to either particle fracture upon removal of a porogen after polymerization or to subsequent milling. […] In a preferred embodiment, the broken sphere microparticles are characterized by a mean unit diameter from about 1 to about 50 microns, more preferably from about 1 to about 25 microns, most preferably, from about 1 to about 20 microns.
The copolymer powder of Example 1 was mixed with zinc pyrithione (solids having a particle size of 3 to 5 microns slurried in water) in an amount of 12 grams of slurry per one gram of the copolymer, then dried in an oven at 80° C. to evaporate water. […] Zinc pyrithione was supplied by Ruetger Nease Company, as mixture of 48% of zinc pyrithione, 51% water, and 1% zinc chloride, and is used as antidandruff component in hair care products, e.g., antidandruff shampoos.
The copolymer of Example 1 was loaded with a methanol/salicylic acid solution in an amount of 12 grams per gram, and dried in an oven at 80° C. to evaporate the methanol. […] Salicylic acid is an antiseptic and antifungal agent.
Retinol was dissolved in same amount of ether. The solution (5.5 grams) was adsorbed on 1 gram of the adsorbent polymer of Example 1. […] Usually retinol is in the form of sticky crystals, is light sensitive, and is skin irritant. Retinol is used in cosmetic formulations and as a vitamin.

In order of rising “Free-Flowing (g/g) adsorbed” value:
1. CC(=O)Oc1c(C)c(C)c2c(c1C)CCC(C)(CCC[C@H](C)CCC[C@H](C)CCCC(C)C)O2 (stereo partly shown) [Vitamin E Acetate]  5.6 g/g
2. OCC(O)CO [Glycerin]  6.0 g/g
3. CCCCCCCCCCCCCC(=O)OC(C)C [Isopropyl Myristate]  8.0 g/g
4. COc1ccc(C(=O)c2ccccc2)c(O)c1 [Benzophenone-3]  9.2 g/g
5. Cyclomethicone [Cyclomethicone (DC 244)]  9.6 g/g
6. CC(=O)OCc1ccccc1 [Benzyl Acetate]  10.2 g/g

In order of rising “Total (g/g) adsorbed” value:
1. CC(=O)Oc1c(C)c(C)c2c(c1C)CCC(C)(CCC[C@H](C)CCC[C@H](C)CCCC(C)C)O2 (stereo partly shown) [Vitamin E Acetate]  7.2 g/g
2. OCC(O)CO [Glycerin]  8.0 g/g
3. Oc1cc(Cl)ccc1Oc1ccc(Cl)cc1Cl [IRGASAN DP 300, 5-chloro-2-(2,4-dichlorophenoxy)phenol]  10.0 g/g
4. CCCCCCCCCCCCCC(=O)OC(C)C [Isopropyl Myristate]  10.7 g/g
5. Cyclomethicone [Cyclomethicone (DC 244)]  12.0 g/g
6. COc1ccc(C(=O)c2ccccc2)c(O)c1 [Benzophenone-3]  12.3 g/g
7. CC(=O)OCc1ccccc1 [Benzyl Acetate]  12.3 g/g

test: Adsorption / entrapment of solid and liquid active agents on POLYPORE L 200 microparticles (Example 2); assay type: physicochemical; details: adsorbed on microparticles of Example 2 (POLYPORE L 200)
Protocol: The copolymer of Example 2 was loaded with a methanol/salicylic acid solution to an amount of 12 grams per gram, and dried in an oven at 80° C. to evaporate methanol. The resulting dry product was a white, fine powder, with […] entrapped salicylic acid, i.e., 2.8 grams per gram.
Retinol was dissolved in an equal weight amount of ether, then 5.5 grams of the solution was adsorbed on 1 gram of the adsorbent polymer of Example 2. Thereafter, ether was evacuated under vacuum, and a free-flowing light yellow powder was obtained. The adsorbed amount of retinol was 2.75 grams per gram, i.e., 73%. Usually, retinol is in form of sticky crystals, is light sensitive, and a skin irritant.
The microparticles of Example 2 (POLYPORE™ L 200) also had various other solid and liquid active agents adsorbed thereto, as shown in Table 2: […]

In order of rising “Free-Flowing (g/g) adsorbed” value:
1. CC(=O)Oc1c(C)c(C)c2c(c1C)CCC(C)(CCC[C@H](C)CCC[C@H](C)CCCC(C)C)O2 (stereo partly shown) [Vitamin E Acetate]  7.0 g/g
2. OCC(O)CO [Glycerin]  7.6 g/g
3. COc1ccc(C(=O)c2ccccc2)c(O)c1 [Benzophenone-3]  9.1 g/g
4. CCCCCCCCCCCCCC(=O)OC(C)C [Isopropyl Myristate]  9.5 g/g
5. CC(=O)OCc1ccccc1 [Benzyl Acetate]  9.9 g/g
6. Cyclomethicone [Cyclomethicone (DC 244)]  10.8 g/g

In order of rising “Total (g/g) adsorbed” value:
1. CC(=O)Oc1c(C)c(C)c2c(c1C)CCC(C)(CCC[C@H](C)CCC[C@H](C)CCCC(C)C)O2 (stereo partly shown) [Vitamin E Acetate]  9.2 g/g
2. OCC(O)CO [Glycerin]  10.0 g/g
3. Oc1cc(Cl)ccc1Oc1ccc(Cl)cc1Cl [IRGASAN DP 300, 5-chloro-2-(2,4-dichlorophenoxy)phenol]  10.7 g/g
4. CCCCCCCCCCCCCC(=O)OC(C)C [Isopropyl Myristate]  11.4 g/g
5. CC(=O)OCc1ccccc1 [Benzyl Acetate]  12.7 g/g
6. COc1ccc(C(=O)c2ccccc2)c(O)c1 [Benzophenone-3]  12.8 g/g
7. Cyclomethicone [Cyclomethicone (DC 244)]  15.0 g/g
